Source: article PMC8522775, “Population Pharmacokinetics of Rezafungin in Patients with Fungal Infections” (Antimicrobial Agents and Chemotherapy, 2021)
Like-named read-outs stand apart in the source and are kept apart here. Numbered stars: 1 amine (or outer) side, 2 acyl side, 3 side chain; on linkers, the order of the positions; unused ones are H or OH. Bridge positions count the residues as written; N and C are the ends. Square brackets hold non-standard residues; d marks the D form. Peptide text beside a SMILES is read from it. * marks the point of attachment. Orn(4R-OH,5R-OCH2CH2NMe3+) = C[N+](C)(C)CCO[C@@H](N[*:3])[C@H](O)C[C@H](N[*:1])C(=O)[*:2]; pTerphenylCO(4''-OnC5H11) = CCCCCOc1ccc(-c2ccc(-c3ccc(C(=O)*)cc3)cc2)cc1; hTyr(3S-OH,4S-OH) = N[C@H](C(=O)O)[C@H](O)[C@@H](O)c1ccc(O)cc1; Pro(3S-OH,4S-Me) = C[C@H]1CN[C@H](C(=O)O)[C@H]1O; Hyp = O=C(O)[C@@H]1C[C@@H](O)CN1

How the values were obtained:
[1] = Population PK model of rezafungin in plasma, pooled phase 1 and phase 2 data; format: in vivo, human
Excerpt: Data were pooled from three phase 1 studies (NCT02516904, NCT02551549, and CD101.IV.1.06) and one phase 2 study (NCT02734862). The protocols and informed consent were reviewed and approved by an appropriate institutional review board before subject enrollment. The studies were designed and monitored in compliance with the ethical principles of good clinical practice and in accordance with the Declaration of Helsinki.
The first phase 1 study (NCT2516904) was a single ascending dose (SAD) study in which subjects received a single rezafungin dose of 50, 100, 200, or 400 mg or matching placebo administered as a 60-min IV infusion. A total of 32 subjects were enrolled and randomized evenly to each of the four dosing cohorts (6 active and 2 placebo in each cohort). Blood samples for determination of rezafungin plasma concentrations were obtained prior to the dose and at 0.25, 0.5, 1, 1.5, 2, 4, 6, 8, 12, 24, 48, and 120 h after the start of infusion and on days 7, 14 (±1 day), and 21 (±1 day). The second phase 1 study (NCT02551549) was a multiple ascending dose (MAD) study. A total of 24 subjects were enrolled and randomized evenly to one of three cohorts. In cohorts 1 and 2, subjects received 100 or 200 mg of rezafungin (or matching placebo in a 3:1 ratio in each cohort), respectively, as 60-min IV infusions on days 1 and 8. In cohort 3, subjects received 400 mg (or matching placebo in a 3:1 ratio), respectively, as 60-min IV infusions on days 1, 8, and 15. Blood samples were collected predose and at 0.5, 1, 1.5, 2, 4, 6, 8, 12, 24, 48, and 120 h after the start of each infusion and on days 7, 14 (±1 day), 21 (±1 day), and 35 (±1 day, cohort 3 only). The third phase 1 study (CD101.IV.1.06) was designed to assess the impact of single, ascending doses of rezafungin on QTcF interval in healthy subjects. Subjects were randomized to receive either rezafungin (600 or 1,400 mg IV at a rate of 400 mg/h, n = 12 per dose group), moxifloxacin (400 mg IV, n = 24), or placebo. Only data from subjects randomized to rezafungin were included in the population PK analysis data set. Blood samples for determination of rezafungin plasma concentrations were obtained prior to the dose and at 1.5, 2.5, 3.5, 5, 6, 8, 12, 24, 48, 96, and 168 h after the start of the infusion.
(§1) The phase 2 study (NCT02734862, also known as the STRIVE trial) was a multicenter, randomized, double-blind study designed to assess the safety and efficacy of rezafungin, compared to that of caspofungin followed by optional oral fluconazole step-down, in the treatment of patients with candidemia and/or invasive candidiasis. Treatment groups included two dose regimens of rezafungin IV once weekly (400 mg IV or 400 mg IV on week 1 followed by 200 mg on subsequent weeks) or caspofungin IV once daily. Additional doses after day 14 were allowed based on criteria defined in the study protocol. Blood samples for determination of rezafungin plasma concentrations were obtained within 10 min before the end of infusion and either at 4 and 8 h on day 1 (as specified in the original protocol) or from 15 min to 1 h after the end of infusion and 2 to 12 h after the end of infusion on day 1 (as modified by protocol amendment, designed to better inform the population PK model). Additional samples were obtained with random clinical blood draws on day 2 and day 4, as well as prior to the dose on day 8 and day 15 (or day 14 if no day 15 dose was administered).
All blood samples were assayed for plasma rezafungin concentration using a liquid chromatography coupled to tandem mass spectrometry (LC/MS/MS) method that has been described previously ([11], [12]). In brief, the calibration range for the assay was 10.0 ng/ml to 10,000 ng/ml, and interassay accuracy and precision were excellent (accuracy ranged from 0.3 to 4.3%, and precision ranged from 2.7 to 5.0%). The same assay was used for all four studies. […]

[2] = Post hoc rezafungin exposure and PK parameter estimates for patients of the STRIVE trial; format: in vivo, human; settings: n = 68, plasma; for AUC0–168 / Cmax / Cmin: after first dose and prior to the second dose; for AUC0–168: from individual post hoc parameters; for Cmax: highest predicted concentration; for Cmin: lowest predicted concentration; for clearance / Vd: human, iv; for clearance: individual post hoc estimates from final model; for Vd: volume of distribution at steady state, individual post hoc estimates, read-out: Vss
Method: as §1
All blood samples were assayed for plasma rezafungin concentration using a liquid chromatography coupled to tandem mass spectrometry (LC/MS/MS) method that has been described previously ([11], [12]). In brief, the calibration range for the assay was 10.0 ng/ml to 10,000 ng/ml, and interassay accuracy and precision were excellent (accuracy ranged from 0.3 to 4.3%, and precision ranged from 2.7 to 5.0%). The same assay was used for all four studies.
Patient-specific estimates of rezafungin exposure (AUC from zero to tau [AUC0−τ], maximum concentration of drug [Cmax], and minimum concentration of drug [Cmin]) were derived using individual post hoc PK parameter estimates obtained from the final model. The PK parameters and the mrgsolve package in R ([22]) were then used to simulate predicted plasma rezafungin concentration-time data for each subject for the duration of time between the first and second doses. Cmax and Cmin were defined as the highest and lowest predicted concentrations over that first dosing interval, respectively, while AUC0-τ was calculated via numerical integration of the concentration-time profile. Summary statistics for the rezafungin exposures and key PK parameters (i.e., CL and volume of distribution at steady state [Vss]) were calculated for the patients from the STRIVE trial.

[3] = with normal serum albumin, cited from earlier work
Excerpt: Consistent with the previous population PK model, which had relationships between body weight and all PK parameters ([12]), body size in the form of BSA was predictive of the variability in Vc, Vp1, and Vp2. However, body size was not a significant predictor of the variability in rezafungin CL in this population. One possible explanation for the lack of a body size relationship for CL is the fact that sex is predictive of the IIV in CL but none of the vo ...

[4] = final population PK model, covariate effect: (BSA/1.83)^power
[5] = STRIVE patients, median (range)

SMILES: CCCCCOc1ccc(-c2ccc(-c3ccc(C(=O)N[C@H]4C[C@@H](O)[C@@H](OCC[N+](C)(C)C)NC(=O)[C@@H]5[C@@H](O)[C@@H](C)CN5C(=O)[C@H]([C@@H](C)O)NC(=O)[C@H]([C@H](O)[C@@H](O)c5ccc(O)cc5)NC(=O)[C@@H]5C[C@@H](O)CN5C(=O)[C@H]([C@@H](C)O)NC4=O)cc3)cc2)cc1 [rezafungin] ({pTerphenylCO(4''-OnC5H11)}-[Orn(4R-OH,5R-OCH2CH2NMe3+)]T[Hyp][hTyr(3S-OH,4S-OH)]T[Pro(3S-OH,4S-Me)]; lactam 1-C)
- Vc, proportional change in infected patients ([1]; final population PK model, covariate effect of infection status on Vc): 0.478
- Vp2, proportional change in infected patients ([1]; final population PK model, covariate effect of infection status on Vp2): 1.69
- Vp1-BSA power [1, 4]: 1.14
- Vp2-BSA power [1, 4]: 2.47
- Vp1-albumin power ([1]; final population PK model, covariate effect: (albumin/4.2)^power): −0.829
- Vc-BSA slope ([1]; final population PK model, covariate effect: Vc + slope x (BSA - 1.83)): 7.54
- CLd1, population mean final estimate ([1]; final population PK model, distributional clearance to peripheral compartment 1): 18.2 L/h
- CLd2, population mean final estimate ([1]; final population PK model, distributional clearance, peripheral compartment 2): 0.541 L/h
- CLd3, population mean final estimate ([1]; final population PK model, distributional clearance, peripheral compartment 3): 0.0743 L/h
- Vp1, population mean final estimate ([1]; final population PK model, volume of distribution for peripheral compartment 1, albumin 4.2, BSA 1.83): 14.6 L
- Vp2, population mean final estimate ([1]; final population PK model, volume of distribution for peripheral compartment 2, BSA 1.83, not infected): 6.69 L
- Vc, population mean final estimate ([1]; final population PK model, volume of distribution for the central compartment, BSA 1.83, not infected): 11.1 L
- Vp3, population mean final estimate ([1]; final population PK model, volume of peripheral compartment 3): 13.6 L
- clearance ([1]; human, final linear four-compartment population PK model, zero-order IV input, pooled healthy volunteers (phase 1) and infected patients (phase 2), 135 subjects, 50 to 1,400 mg IV, plasma LC/MS/MS, NONMEM FOCE-I, albumin 4.2, read-out: CL, population mean final estimate (converted)): 4.23 mL/min
- AUC0–168 [2, 5]: 673 (372–1,210) mg·h/liter
- Cmax ([2]; STRIVE patients, mean (SD), SD): 16.4 (4.38) mg/liter
- Cmax [2, 5]: 16.4 (7.10–26.0) mg/liter
- Cmin ([2]; STRIVE patients, mean (SD), SD): 2.07 (0.659) mg/liter
- Cmin [2, 5]: 1.90 (1.04–3.83) mg/liter
- clearance ([2]; STRIVE patients, mean (SD), SD): 6.08 mL/min
- clearance [2, 5]: 5.75 mL/min
- Vd ([2]; STRIVE patients, mean (SD), SD): 61 L
- Vd [2, 5]: 52.7 L
- AUC0–168 ([2]; patients with candidemia and/or invasive candidiasis, STRIVE trial, 400 mg IV week 1, mean (SD), SD): 709 (184) mg·h/liter
- protein binding ([3]; humans): 97.4%
- protein binding ([3]; rats): 99.2%
